The record followed here is PubChem BioAssay (NCI).

Common to all, as to experiment: growth of human tumour cells (NCI), 48 h
Test [1] relates to DU-145 prostate.
The test system of test [2] is A498 renal.
Test [3] has as its system SK-OV-3 ovarian.
The test system of test [4] is NCI-H226 lung.
For test [5], the system named is NCI-H460 lung.
Test [6] concerns SK-MEL-5 melanoma.
Test [7] has as its system SK-MEL-28 melanoma.
Test [8] concerns TK-10 renal.
The subject of test [9] is SNB-75 CNS.
The subject of test [10] is UO-31 renal.

SMILES strings stand for the structures. Values joined by “and” are separate entries in the source; they are usually repeats but may differ in a detail not shown here. Identical values can stand only once.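 Cells were grown in 96-well plates and exposed to each compound for 48 hours at five concentrations; endpoints were interpolated linearly between bracketing concentrations, or set to the highest concentration if not reached. GI50 = concentration required for 50% inhibition of growth. TGI: total growth inhibition.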

With `Oc1ccc(Cl)cc1Cc1cc(Cl)ccc1O`, the GI50 in test [1] was 3.81 µM; in test [2], 1.98 µM; in test [3], 2.81 µM; in test [4], 3.28 µM; in test [5] it was 3 µM; in test [6], 1.62 µM. For the same compound, the GI50 is 3.52 µM in test [7], 3.65 µM in test [8], 4.09 µM in [9] and 2.06 µM in [10]. Besides, the TGI in test [1] came out at 13.8 µM; in test [2] it was 9.84 µM; in test [3] it was 10.9 µM; in test [4], 14.4 µM; in test [5] it was 10.7 µM; in [6], 3.46 µM. The TGI in [7] amounted to 12.6 µM; in test [8] it was 11.3 µM; in [9], 24.2 µM; in [10], 6.48 µM.

As to `O=c1[nH]c2ccccc2n1-c1n[nH]c2ccccc12`, the GI50 in [1] was 34 µM; in test [2], 51.3 µM; in test [3], 73 µM; in test [4], 18.9 µM; in test [5], 19.4 µM; in [6] it was 16.9 µM. Further, the GI50 in [7] was 38.8 µM; in test [8] it was 40.7 µM; in test [9], 41.9 µM; in test [10] it was 12.5 µM. The TGI was over 100 µM in [1]; over 100 µM in test [2]; over 100 µM in [3]; 55.4 µM in test [4]; 93.5 µM in [5]; 35.9 µM in test [6]. The TGI in test [7], in test [8], in test [9] and in test [10] was over 100 µM throughout.

Consider `C/C=C1\C(=O)OC2CCN3CCC(COC(=O)C(C)(O)C(C)C1O)C23` (stereo not given), for which the TGI in [1], in test [2], in test [3], in [4], in test [5] and in [6] was over 100 µM in each case. The TGI in [7], in [8], in [9] and in test [10] was over 100 µM in each case.

Regarding `O=C(Nc1ccccc1C(=O)N/N=C(\c1ccccc1)c1ccccn1)c1ccc(F)cc1`, the GI50 in test [1] is 0.351 µM; in test [2] it was 1.37 µM; in test [3], 0.354 µM; in test [4], 0.366 µM; in test [5], 0.105 µM; in test [6], 0.22 µM. Moreover, the GI50 in test [7] was 0.536 µM; in test [8] it was 0.408 µM; in test [9], 4.81 µM; in [10], 0.0828 µM. Moreover, the TGI was over 100 µM in [1]; 9.43 µM in test [2]; over 20.9 µM in test [3]; 4.19 µM in test [5]; 3.5 µM in test [6]; over 100 µM in test [7]. The TGI in test [8] was over 100 µM; in test [9], over 100 µM; in [10], 7.25 µM.

Turning to `Nc1ccc(S(=O)(=O)Nc2cnc3c(Cl)cccc3n2)cc1`, the TGI in [1] was over 750 µM; in [2] it was 597 µM; in [3], 163 µM; in test [4], over 750 µM; in [5], over 750 µM; in test [6], over 627 µM. Besides, the TGI is 723 µM in [7]; 589 µM in test [8]; > 95 µM and 682 µM in test [9]; > 56.2 µM and 742 µM in [10]. Moreover, the GI50 was over 75.6 µM in test [4]; over 77.9 µM in [5]; over 69.4 µM in test [7]; over 84.7 µM in [8]; 51.6 µM in test [9]; over 55.8 µM in test [10].

With `Cc1cc(Cl)ccc1NS(=O)(=O)c1ccc(-c2cnc(C3CC3)o2)cc1`, the GI50 in test [1] is 0.395 µM; in test [2] it was 0.0915 µM; in test [3], 4.32 µM; in test [4] it was 1.04 µM; in [5] it was 0.37 µM; in test [6] it was 0.517 µM. Further, the GI50 in test [7] is 4.9 µM; in test [8], 11.8 µM; in test [9], 0.153 µM; in [10], 0.619 µM. Besides, the TGI is 17.9 µM in [1]; 0.841 µM in test [2]; 26.2 µM in [3]; 16.5 µM in test [4]; 12.4 µM in test [5]; 6.88 µM in test [6]. Besides, the TGI in [7] was 22.8 µM; in [8], 31.1 µM; in test [9] it was 0.667 µM; in test [10] it was 16.9 µM.

Regarding `CC(C)C(=O)Oc1cc2c(=O)oc3c(OC(=O)C(C)C)c(OC(=O)C(C)C)cc4c(=O)oc(c1OC(=O)C(C)C)c2c34`, the TGI in test [1], in test [2], in test [3], in test [4], in [5] and in test [6] was over 100 µM each time. In addition, the TGI in test [7], in test [8], in test [9] and in test [10] was over 100 µM each time.

Take `CC(=O)Oc1ccc2c(c1)CC[C@@H]1C2CC[C@]2(C)C(=O)NC(=O)CC12` (stereo not given in full): the TGI in [1], in test [2], in test [3], in test [4], in test [5] and in [6] was over 100 µM each time. Moreover, the TGI in test [7], in [8], in test [9] and in test [10] was over 100 µM in each case.

For the compound `COc1cc(/C=C(\C#N)C(N)=C(C#N)C#N)cc(O)c1O`, the TGI in test [1], in test [2], in [3], in [4], in [5] and in [6] was over 100 µM throughout. Moreover, the TGI in test [7], in test [8], in test [9] and in test [10] was over 100 µM each time.
